Data as given in patent US8263606B2 (Xenon Pharmaceuticals Inc., priority 2008, dated 2012).
pIC50: −log10 of the molar value.

Tests used:
sodium channel = assay: Guanidine influx assay (14C-guanidine radiotracer flux, in vitro); assay type: cell-based, human or rat; conditions: guanidine influx assay using a known cell line that expresses a sodium channel
Method in brief: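 Cells (human/rat Nav, endogenous or recombinant), ~100,000/well, 20-24 h 37 °C/5% CO2. Wash LNHBSS (150 mM choline Cl, HEPES, glucose). Add cpd + aconitine/14C-guanidine mix, RT. Wash, dry, scintillation count. IC50: 4-PL fit; selectivity as IC50 ratio vs reference channel, e.g. Nav1.5.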

CYP3A4 = CYP3A4 (Homo sapiens, UniProt P08684); assay: Cytochrome P450 (CYP450) Inhibition Assay, CYP3A4 (Vivid fluorescence, BOMCC substrate); conditions: human, P450 Baculosomes (recombinant CYP3A4), probe BOMCC (Vivid substrate)
CYP3A4, sequence (P08684 whole entry): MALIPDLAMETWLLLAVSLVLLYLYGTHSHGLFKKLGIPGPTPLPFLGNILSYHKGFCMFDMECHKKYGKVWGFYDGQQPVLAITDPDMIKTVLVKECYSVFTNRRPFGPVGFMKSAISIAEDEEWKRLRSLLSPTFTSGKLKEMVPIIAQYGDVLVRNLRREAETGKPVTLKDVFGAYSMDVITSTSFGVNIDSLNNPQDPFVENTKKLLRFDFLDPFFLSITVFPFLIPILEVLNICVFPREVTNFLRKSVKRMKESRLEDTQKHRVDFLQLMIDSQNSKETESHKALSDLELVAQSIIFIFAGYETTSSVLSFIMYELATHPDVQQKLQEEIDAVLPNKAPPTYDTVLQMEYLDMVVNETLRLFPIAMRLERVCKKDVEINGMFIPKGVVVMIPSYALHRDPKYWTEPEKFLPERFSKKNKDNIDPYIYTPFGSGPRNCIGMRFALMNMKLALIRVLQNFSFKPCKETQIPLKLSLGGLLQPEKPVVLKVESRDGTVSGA

SMILES	pIC50 (sodium channel; activity level class)	melting point	inhibition at 10 µM (CYP3A4) [%]	pIC50 (sodium channel)
CN1CCOc2cc3c(cc21)C1(CO3)C(=O)N(Cc2ccc(C(F)(F)F)o2)c2ccccc21.Cl (stereo not drawn) [Example 2.28, 1-methyl-1′-{[5-(trifluoromethyl)furan-2-yl]methyl}-2,3-dihydro-1H-spiro[furo[3,2-g][1,4]benzoxazine-8,3′-indol]-2′(1′H)-one hydrochloride]	6.00 to 7.00	105 °C (dec.)	> 50	–
O=C(O)c1cccc(CN2C(=O)C3(COc4cc5c(cc43)CCO5)c3ccccc32)c1 (stereo not drawn) [Example 11.12, 3-[(2′-oxo-5,6-dihydrospiro[benzo[1,2-b:5,4-b′]difuran-3,3′-indol]-1′(2′H)-yl)methyl]benzoic acid]	–	> 250 °C	< 50	5.00 to 6.00
O=C1N(CC2CC2(F)F)c2ccccc2C12COc1cc3c(cc12)OCCO3 (stereo not drawn) [Example 5.21, 1′-[(2,2-difluorocyclopropyl)methyl]-2,3-dihydrospiro[furo[2,3-g][1,4]benzodioxine-8,3′-indol]-2′(1′H)-one]	7.00 to 9.00	162 to 164 °C	< 50	–
O=C1Nc2c(F)cccc2C12COc1cc3c(cc12)CCO3 (stereo not drawn) [Example 3.16, 7′-fluoro-5,6-dihydrospiro[benzo[1,2-b:5,4-b′]difuran-3,3′-indol]-2′(1′H)-one]	6.00 to 7.00	> 250 °C	< 50	–
O=C(Nc1cccc(F)c1)c1ccc(CN2C(=O)C3(COc4cc5c(cc43)CCO5)c3ccccc32)cc1 (stereo not drawn) [Example 12.36, N-(3-fluorophenyl)-4-[(2′-oxo-5,6-dihydrospiro[benzo[1,2-b:5,4-b′]difuran-3,3′-indol]-1′(2′H)-yl)methyl]benzamide]	–	> 250 °C	< 50	6.00 to 7.00
COc1cc2c(cc1C)C1(CO2)C(=O)N(C[C@H]2CCCO2)c2ccccc21 (stereo partly drawn) [Example 4.61, 6-methoxy-5-methyl-1′-[(2R)-tetrahydrofuran-2-ylmethyl]spiro[1-benzofuran-3,3′-indol]-2′(1′H)-one]	5.00 to 6.00	151 to 153 °C	< 50	–
O=C1N(C[C@H]2CCCO2)c2cc3c(cc2C12COc1cc4c(cc12)CCO4)OCCO3 (stereo partly drawn) [Example 2.26, 6-(((R)-tetrahydrofuran-2-yl)methyl)-2,3,5′,6′-tetrahydro-2′H-spiro[[1,4]dioxino[2,3-f]indole-8,3′-benzofuro[6,5-b]furan]-7(6H)-one]	5.00 to 6.00	220 to 225 °C	< 50	–
CN1CCOc2cc3c(cc21)OCC31C(=O)N(C[C@H]2CCCO2)c2ccccc21 (stereo partly drawn) [Example 2.30, 4-methyl-1′-[(2R)-tetrahydrofuran-2-ylmethyl]-3,4-dihydro-2H-spiro[furo[2,3-g][1,4]benzoxazine-8,3′-indol]-2′(1′H)-one]	5.00 to 6.00	138 to 140 °C	> 50	–
O=C1N(Cc2csc(-c3ccc(C(F)(F)F)cc3)n2)c2ccccc2C12COc1cc3c(cc12)OCO3 (stereo not drawn) [Example 6.5, 1′-({2-[4-(trifluoromethyl)phenyl]-1,3-thiazol-4-yl}methyl)spiro[furo[2,3-f][1,3]benzodioxole-7,3′-indol]-2′(1′H)-one]	6.00 to 7.00	151 to 153 °C	> 50	–
COC(=O)c1cccc(CN2C(=O)C3(COc4cc5c(cc43)CCO5)c3ccccc32)c1 (stereo not drawn) [Example 9.15, methyl 3-[(2′-oxo-5,6-dihydrospiro[benzo[1,2-b:5,4-b′]difuran-3,3′-indol]-1′(2′H)-yl)methyl]benzoate]	7.00 to 9.00	97 to 98 °C	> 50	–
CN1C(=O)COc2cc3c(cc21)C1(CO3)C(=O)N(C[C@H]2CCCO2)c2ccccc21 (stereo partly drawn) [Example 4.59, 1-methyl-1′-[(2R)-tetrahydrofuran-2-ylmethyl]-1H-spiro[furo[3,2-g][1,4]benzoxazine-8,3′-indole]-2,2′(1′H-3H)-dione]	5.00 to 6.00	79 to 81 °C	< 50	–
Cc1nc2cc3c(cc2s1)C1(CO3)C(=O)N(CC2CCOCC2)c2ccccc21 (stereo not drawn) [Example 4.57, 2-methyl-1′-(tetrahydro-2H-pyran-4-ylmethyl)spiro[furo[2,3-f][1,3]benzothiazole-7,3′-indol]-2′(1′H)-one]	5.00 to 6.00	186 to 187 °C	> 50	–
CS(=O)(=O)c1cccnc1CN1C(=O)C2(COc3cc4c(cc32)OCCO4)c2ccccc21 (stereo not drawn) [Example 11.79]	–	> 250 °C	< 50	6.00 to 7.00
Cc1c(F)cccc1NC(=O)c1ccccc1CN1C(=O)C2(COc3cc4c(cc32)CCO4)c2ccccc21 (stereo not drawn) [Example 12.14, N-(3-fluoro-2-methylphenyl)-2-[(2′-oxo-5,6-dihydrospiro[benzo[1,2-b:5,4-b′]difuran-3,3′-indol]-1′(2′H)-yl)methyl]benzamide]	–	> 230 °C	> 50	6.00 to 7.00
O=C1N(C[C@H]2CCCO2)c2ccccc2C12COc1cc3c(cc12)CCCO3 (stereo partly drawn) [Example 4.53, 1′-[(2R)-tetrahydrofuran-2-ylmethyl]-6,7-dihydro-5H-spiro[furo[3,2-g]chromene-3,3′-indol]-2′(1′H)-one]	6.00 to 7.00	151 to 156 °C	< 50	–
COc1cc2c(cc1C)[C@@]1(CO2)C(=O)Nc2ccccc21 [Example 3.25, (3S)-6-methoxy-5-methylspiro[1-benzofuran-3,3′-indol]-2′(1′H)-one]	5.00 to 6.00	> 250 °C	< 50	–
COc1cc(CN2C(=O)C3(COc4cc5c(cc43)OCCO5)c3ccccc32)cc(OC)c1 (stereo not drawn) [Example 4.47, 1′-(3,5-dimethoxybenzyl)-2,3-dihydrospiro[furo[2,3-g][1,4]benzodioxine-8,3′-indol]-2′(1′H)-one]	7.00 to 9.00	192 to 195 °C	> 50	–
N#CCN1C(=O)C2(COc3cc4c(cc32)OCO4)c2c(Cl)cccc21 (stereo not drawn) [Example 4.84]	6.00 to 7.00	122 to 123 °C	< 50	–
CCc1ccccc1NC(=O)c1ccc(CN2C(=O)C3(COc4cc5c(cc43)CCO5)c3ccccc32)cc1 (stereo not drawn) [Example 12.34, N-(2-ethylphenyl)-4-[(2′-oxo-5,6-dihydrospiro[benzo[1,2-b:5,4-b′]difuran-3,3′-indol]-1′(2′H)-yl)methyl]benzamide]	–	203 to 204 °C	> 50	5.00 to 6.00

The remaining lines, values ahead:

pIC50 (sodium channel; activity level class)	melting point	inhibition at 10 µM (CYP3A4) [%]	pIC50 (sodium channel)	SMILES
6.00 to 7.00	162 to 164 °C	< 50	–	O=C1N(C[C@@H]2COCCO2)c2ccccc2C12COc1cc3c(cc12)OCC3 (stereo partly drawn) [Example 8.10, 1′-[(2R)-1,4-dioxan-2-ylmethyl]-6,7-dihydrospiro[benzo[1,2-b:4,5-b′]difuran-3,3′-indol]-2′(1′H)-one]
6.00 to 7.00	164 to 165 °C	> 50	–	CC(C)c1nc(CN2C(=O)C3(COc4cc5c(cc43)OCO5)c3c(-c4ccc(N(C)C)nc4)cccc32)cs1 (stereo not drawn) [Example 4.92, 4′-[6-(dimethylamino)pyridin-3-yl]-1′-{[2-(1-methylethyl)-1,3-thiazol-4-yl]methyl}spiro[furo[2,3-f][1,3]benzodioxole-7,3′-indol]-2′(1′H)-one]
5.00 to 6.00	132 to 134 °C	> 50	–	COc1cc2c(cc1F)OCC21C(=O)N(Cc2ccc(C(F)(F)F)o2)c2ccccc21 (stereo not drawn) [Example 4.83, 6-fluoro-5-methoxy-1′-{[5-(trifluoromethyl)furan-2-yl]methyl}spiro[1-benzofuran-3,3′-indol]-2′(1′H)-one]
7.00 to 9.00	173 to 175 °C	< 50	–	O=C1N(Cc2ccc3c(c2)OCCO3)c2ccccc2C12COc1cc3c(cc12)CCO3 (stereo not drawn) [Example 4.26, 1′-(2,3-dihydro-1,4-benzodioxin-6-ylmethyl)-5,6-dihydrospiro[benzo[1,2-b:5,4-b′]difuran-3,3′-indol]-2′(1′H)-one]
–	182 to 183 °C	< 50	6.00 to 7.00	COCCNC(=O)c1ccc(CN2C(=O)C3(COc4cc5c(cc43)CCO5)c3ccccc32)cc1 (stereo not drawn) [Example 12.40, N-(2-methoxyethyl)-4-[(2′-oxo-5,6-dihydrospiro[benzo[1,2-b:5,4-b′]difuran-3,3′-indol]-1′(2′H)-yl)methyl]benzamide]
6.00 to 7.00	106 to 116 °C	< 50	–	COc1cc2c(cc1F)C1(CO2)C(=O)N(C[C@H]2CCCO2)c2ccccc21 (stereo partly drawn) [Example 4.66, 5-fluoro-6-methoxy-1′-[(2R)-tetrahydrofuran-2-ylmethyl]spiro[1-benzofuran-3,3′-indol]-2′(1′H)-one]
–	165 to 167 °C	> 50	7.00 to 9.00	CC(C)c1nc(CN2C(=O)C3(COc4cc5c(cc43)OCO5)c3c(Cl)cccc32)no1 (stereo not drawn) [Example 11.25, 4′-chloro-1′-{[5-(1-methylethyl)-1,2,4-oxadiazol-3-yl]methyl}spiro[furo[2,3-f][1,3]benzodioxole-7,3′-indol]-2′(1′H)-one]
5.00 to 6.00	137 to 138 °C	> 50	–	Cc1nc2cc3c(cc2s1)C1(CO3)C(=O)N(CCC(C)C)c2ccccc21 (stereo not drawn) [Example 4.56, 2-methyl-1′-(3-methylbutyl)spiro[furo[2,3-f][1,3]benzothiazole-7,3′-indol]-2′(1′H)-one]
